Like-named read-outs stand apart in the source and are kept apart here.
Columns and labels:
Assay in all cases: SelectScreen Kinase Profiling, single point inhibition and IC50 for off-target kinases
Assay type in all cases: biochemical
[1] = molecular target: T1, off-target kinases (Homo sapiens, UniProt Q8IWQ3); conditions: BRSK2, LanthaScreen Binding
T1 sequence (Q8IWQ3 1-736): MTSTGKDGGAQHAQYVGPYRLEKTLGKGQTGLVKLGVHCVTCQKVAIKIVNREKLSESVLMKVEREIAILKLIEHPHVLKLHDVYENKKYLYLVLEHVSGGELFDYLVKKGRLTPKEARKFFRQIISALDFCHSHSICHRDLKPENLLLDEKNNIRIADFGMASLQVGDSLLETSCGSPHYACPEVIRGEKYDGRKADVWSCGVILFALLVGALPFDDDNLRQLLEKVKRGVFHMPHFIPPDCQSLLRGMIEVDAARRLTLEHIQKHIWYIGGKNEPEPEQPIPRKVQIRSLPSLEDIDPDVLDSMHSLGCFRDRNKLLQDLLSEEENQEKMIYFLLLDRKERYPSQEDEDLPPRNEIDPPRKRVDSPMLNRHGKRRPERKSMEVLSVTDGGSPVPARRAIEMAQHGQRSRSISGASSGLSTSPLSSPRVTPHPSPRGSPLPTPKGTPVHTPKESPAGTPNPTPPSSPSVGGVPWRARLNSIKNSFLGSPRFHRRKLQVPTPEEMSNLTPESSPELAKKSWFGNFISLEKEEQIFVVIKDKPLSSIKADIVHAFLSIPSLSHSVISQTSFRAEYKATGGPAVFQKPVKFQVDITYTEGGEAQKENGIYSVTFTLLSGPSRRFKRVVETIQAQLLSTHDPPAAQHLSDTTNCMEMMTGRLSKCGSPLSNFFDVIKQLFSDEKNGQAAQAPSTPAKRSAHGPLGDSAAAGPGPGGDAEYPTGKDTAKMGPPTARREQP

[2] = molecular target: T2, off-target kinases (Homo sapiens, UniProt Q9UKI8); conditions: TLK1, LanthaScreen Binding
T2 sequence (Q9UKI8 1-766): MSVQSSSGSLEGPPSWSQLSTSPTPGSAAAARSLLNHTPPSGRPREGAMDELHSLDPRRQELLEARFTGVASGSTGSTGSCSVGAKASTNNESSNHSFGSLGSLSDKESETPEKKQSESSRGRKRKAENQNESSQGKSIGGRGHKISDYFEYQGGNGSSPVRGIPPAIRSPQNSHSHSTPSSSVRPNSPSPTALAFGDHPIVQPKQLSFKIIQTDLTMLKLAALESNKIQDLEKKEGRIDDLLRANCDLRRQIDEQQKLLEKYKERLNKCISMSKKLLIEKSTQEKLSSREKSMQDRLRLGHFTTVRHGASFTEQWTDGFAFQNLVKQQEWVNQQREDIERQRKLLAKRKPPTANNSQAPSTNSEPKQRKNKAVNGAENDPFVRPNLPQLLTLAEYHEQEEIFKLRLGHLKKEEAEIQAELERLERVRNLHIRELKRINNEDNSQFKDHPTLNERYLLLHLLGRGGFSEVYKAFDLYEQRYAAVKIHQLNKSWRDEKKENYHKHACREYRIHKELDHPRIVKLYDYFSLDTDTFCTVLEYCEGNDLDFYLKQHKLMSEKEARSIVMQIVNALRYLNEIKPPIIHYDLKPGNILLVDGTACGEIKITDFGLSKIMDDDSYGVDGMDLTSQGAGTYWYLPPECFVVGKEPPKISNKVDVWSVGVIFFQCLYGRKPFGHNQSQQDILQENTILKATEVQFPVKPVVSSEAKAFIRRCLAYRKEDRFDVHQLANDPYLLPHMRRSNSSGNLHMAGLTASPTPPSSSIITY

[3] = molecular target: off-target kinases (Homo sapiens, UniProt P07948); conditions: LYN A, ATP Km app, ZLYTE
[4] = molecular target: off-target kinases (Homo sapiens, UniProt P49841); conditions: GSK3B (GSK3 beta), ZLYTE, ATP Km app
[5] = molecular target: off-target kinases (Homo sapiens, UniProt O00418)
Chain of off-target kinases (Homo sapiens, UniProt O00418) (O00418 whole entry): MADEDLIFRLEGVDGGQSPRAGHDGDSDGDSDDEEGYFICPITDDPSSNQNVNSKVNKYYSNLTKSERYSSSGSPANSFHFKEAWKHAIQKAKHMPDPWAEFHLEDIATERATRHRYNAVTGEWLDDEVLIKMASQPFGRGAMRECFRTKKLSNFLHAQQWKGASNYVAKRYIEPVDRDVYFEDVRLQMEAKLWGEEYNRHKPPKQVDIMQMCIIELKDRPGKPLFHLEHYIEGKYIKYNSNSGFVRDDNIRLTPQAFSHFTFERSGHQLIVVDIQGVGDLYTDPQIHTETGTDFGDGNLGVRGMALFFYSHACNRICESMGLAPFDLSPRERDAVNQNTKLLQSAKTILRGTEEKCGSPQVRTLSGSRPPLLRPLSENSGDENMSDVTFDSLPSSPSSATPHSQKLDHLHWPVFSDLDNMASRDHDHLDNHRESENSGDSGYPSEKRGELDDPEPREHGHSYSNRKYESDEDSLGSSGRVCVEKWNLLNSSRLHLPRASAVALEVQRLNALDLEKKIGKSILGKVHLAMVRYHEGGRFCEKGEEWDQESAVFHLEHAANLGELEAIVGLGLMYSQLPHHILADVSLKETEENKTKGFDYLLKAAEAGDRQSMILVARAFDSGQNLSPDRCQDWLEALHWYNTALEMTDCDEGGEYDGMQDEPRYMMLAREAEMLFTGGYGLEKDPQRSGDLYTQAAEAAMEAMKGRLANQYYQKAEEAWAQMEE

Chain of off-target kinases (Homo sapiens, UniProt P49841) (P49841 whole entry): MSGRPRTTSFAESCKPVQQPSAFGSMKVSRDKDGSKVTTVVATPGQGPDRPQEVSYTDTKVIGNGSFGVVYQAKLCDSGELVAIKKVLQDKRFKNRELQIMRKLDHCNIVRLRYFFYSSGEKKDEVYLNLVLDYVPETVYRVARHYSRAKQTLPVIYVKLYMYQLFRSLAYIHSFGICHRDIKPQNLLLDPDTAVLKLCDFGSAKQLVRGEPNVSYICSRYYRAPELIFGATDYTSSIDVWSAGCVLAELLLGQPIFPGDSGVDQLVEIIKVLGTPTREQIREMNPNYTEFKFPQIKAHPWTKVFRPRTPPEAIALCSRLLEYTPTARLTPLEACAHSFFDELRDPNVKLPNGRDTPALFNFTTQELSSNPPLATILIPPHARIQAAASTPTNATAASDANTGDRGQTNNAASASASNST
Chain of off-target kinases (Homo sapiens, UniProt P07948) (P07948 whole entry): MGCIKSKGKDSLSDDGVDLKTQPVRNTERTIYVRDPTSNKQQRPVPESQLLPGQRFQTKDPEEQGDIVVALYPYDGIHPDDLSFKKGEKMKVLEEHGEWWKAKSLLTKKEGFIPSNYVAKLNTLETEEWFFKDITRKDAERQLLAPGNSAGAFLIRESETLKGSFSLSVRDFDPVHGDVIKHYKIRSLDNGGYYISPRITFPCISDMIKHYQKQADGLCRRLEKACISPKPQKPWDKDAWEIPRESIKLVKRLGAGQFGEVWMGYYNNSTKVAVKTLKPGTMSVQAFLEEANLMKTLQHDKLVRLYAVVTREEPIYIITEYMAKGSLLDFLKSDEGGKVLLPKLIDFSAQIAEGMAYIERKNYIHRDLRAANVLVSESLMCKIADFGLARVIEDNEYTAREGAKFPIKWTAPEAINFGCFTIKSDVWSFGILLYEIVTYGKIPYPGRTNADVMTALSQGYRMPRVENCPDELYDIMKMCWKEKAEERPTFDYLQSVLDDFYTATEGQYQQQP

## N#Cc1cc(-c2ncnc(Nc3ccc(N4CCN(C5COC5)CC4)cc3)n2)ccc1OC1CCOCC1 [Compound 1, 5-(4-((4-(4-(oxetan-3-yl)piperazin-1-yl)phenyl)amino)-1,3,5-triazin-2-yl)-2-((tetrahydro-2H-pyran-4-yl)oxy)benzonitrile]
[1]; read-out: % Inhibition 1
  inhibition: 16%
[1]; read-out: % Inhibition 2
  inhibition: 17%
[1]; read-out: % Inhibition Avg
  inhibition: 17%
[2]; read-out: % Inhibition 1
  inhibition: 13%
[2]; read-out: % Inhibition 2
  inhibition: 17%
[2]; read-out: % Inhibition Avg
  inhibition: 15%
[3]; read-out: % Inhibition 1
  inhibition: 48%
[3]; read-out: % Inhibition 2
  inhibition: 48%
[3]; read-out: % Inhibition Avg
  inhibition: 48%
[4]; read-out: % Inhibition 1
  inhibition: 21%
[4]; read-out: % Inhibition 2
  inhibition: 21%
[4]; read-out: % Inhibition Avg
  inhibition: 21%
[5]; read-out: % Inhibition 1
  inhibition: -1%
[5]; read-out: % Inhibition 2
  inhibition: 0%
[5]; read-out: % Inhibition Avg
  inhibition: -1%
